From patent US20250108054A1, “METHODS FOR TREATING PERSISTENT OR CHRONIC IMMUNE THROMBOCYTOPENIA IN CHILDREN, ADOLESCENTS AND ADULTS BY ADMINISTERING (R)-2-[3-[4-AMINO-3-(2-FLUORO-4-PHENOXY-PHENYL)PYRAZOLO[3,4-D]PYRIMIDIN-1-YL]PIPERIDINE-1-CARBONYL]-4-METHYL-4-[4-(OXETAN-3-YL)PIPERAZIN-1-YL]PENT-2-ENENITRILE” (Principia Biopharma Inc., priority 2023, published 2025)
Where two headings read alike, the source gives them in different places.

How the values were obtained:
[1] = target: B cell lymphocyte kinase (BLK) (Homo sapiens, UniProt P51451); assay: kinase enzyme inhibition, BLK; type: biochemical
ERBB4 = ERBB4 (Homo sapiens, UniProt Q15303); assay: kinase enzyme inhibition, ERBB4; type: biochemical
[2] = target: T1, (Homo sapiens, UniProt P42681); assay: kinase enzyme inhibition, RLK; type: biochemical
T1 sequence (P42681 1-527): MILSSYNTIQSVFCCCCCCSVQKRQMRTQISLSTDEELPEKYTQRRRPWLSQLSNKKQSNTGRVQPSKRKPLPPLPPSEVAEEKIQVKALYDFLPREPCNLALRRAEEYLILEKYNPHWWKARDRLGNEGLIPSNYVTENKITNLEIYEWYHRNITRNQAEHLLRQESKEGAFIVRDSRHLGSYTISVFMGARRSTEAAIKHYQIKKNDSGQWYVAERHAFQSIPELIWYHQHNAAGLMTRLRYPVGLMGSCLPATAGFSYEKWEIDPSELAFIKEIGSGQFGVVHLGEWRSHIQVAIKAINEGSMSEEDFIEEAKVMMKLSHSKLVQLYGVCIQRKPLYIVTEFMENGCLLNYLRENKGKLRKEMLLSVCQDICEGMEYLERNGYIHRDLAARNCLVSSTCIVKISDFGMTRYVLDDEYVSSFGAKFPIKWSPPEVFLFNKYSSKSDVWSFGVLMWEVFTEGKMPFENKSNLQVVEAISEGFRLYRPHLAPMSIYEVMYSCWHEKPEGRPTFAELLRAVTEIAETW

[3] = test system: patients with relapsed ITP; conditions: for median PVI: main treatment period
[4] = target: T2, bone marrow tyrosine kinase on chromosome X (BMX) (Homo sapiens, UniProt P51813); assay: kinase enzyme inhibition, BMX; type: biochemical
T2 sequence (P51813 1-675): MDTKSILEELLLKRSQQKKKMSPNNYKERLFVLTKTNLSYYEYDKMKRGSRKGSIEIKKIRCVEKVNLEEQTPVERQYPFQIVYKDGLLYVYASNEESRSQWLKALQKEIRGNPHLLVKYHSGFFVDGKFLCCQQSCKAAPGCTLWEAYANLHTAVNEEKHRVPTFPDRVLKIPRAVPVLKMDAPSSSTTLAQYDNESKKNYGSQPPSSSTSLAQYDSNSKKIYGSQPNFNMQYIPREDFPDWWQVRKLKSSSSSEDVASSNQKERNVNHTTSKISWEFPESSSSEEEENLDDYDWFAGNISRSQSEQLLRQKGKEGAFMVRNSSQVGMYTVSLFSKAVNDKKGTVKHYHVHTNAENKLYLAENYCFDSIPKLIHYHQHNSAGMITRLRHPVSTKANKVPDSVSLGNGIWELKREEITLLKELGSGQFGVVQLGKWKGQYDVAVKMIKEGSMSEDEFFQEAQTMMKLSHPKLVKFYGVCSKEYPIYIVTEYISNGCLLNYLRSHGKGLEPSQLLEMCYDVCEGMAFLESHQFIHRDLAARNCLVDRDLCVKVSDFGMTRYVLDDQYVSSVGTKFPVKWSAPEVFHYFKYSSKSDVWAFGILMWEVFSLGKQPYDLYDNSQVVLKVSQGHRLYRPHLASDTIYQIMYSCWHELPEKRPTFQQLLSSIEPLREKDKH

251 kinases = assay: broad kinase enzyme inhibition panel; type: biochemical; conditions: 1 μM; of 251 kinases
human B cell activation = human B cell activation in vitro; type: cell-based
[5] = target: T3, tyrosine protein kinase TEC (Homo sapiens, UniProt P42680); assay: kinase enzyme inhibition, TEC; type: biochemical
T3 sequence (P42680 1-631): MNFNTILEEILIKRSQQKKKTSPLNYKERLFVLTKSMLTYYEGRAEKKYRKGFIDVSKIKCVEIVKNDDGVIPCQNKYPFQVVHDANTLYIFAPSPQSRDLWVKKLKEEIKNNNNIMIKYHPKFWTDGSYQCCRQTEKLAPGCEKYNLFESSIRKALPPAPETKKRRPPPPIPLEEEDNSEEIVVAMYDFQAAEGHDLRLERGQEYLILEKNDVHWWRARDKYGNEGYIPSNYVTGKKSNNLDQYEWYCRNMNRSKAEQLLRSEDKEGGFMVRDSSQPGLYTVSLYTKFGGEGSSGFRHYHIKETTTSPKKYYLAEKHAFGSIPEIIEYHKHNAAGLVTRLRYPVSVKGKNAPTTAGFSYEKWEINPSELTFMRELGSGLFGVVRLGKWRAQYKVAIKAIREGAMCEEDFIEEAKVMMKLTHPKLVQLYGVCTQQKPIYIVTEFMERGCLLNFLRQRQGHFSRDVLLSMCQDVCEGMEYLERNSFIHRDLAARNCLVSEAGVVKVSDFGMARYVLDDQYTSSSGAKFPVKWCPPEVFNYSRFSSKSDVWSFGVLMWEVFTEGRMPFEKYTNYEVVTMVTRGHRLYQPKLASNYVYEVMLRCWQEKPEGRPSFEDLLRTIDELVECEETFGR

other TEC family members = assay: preclinical assay of persistence of binding, other TEC family members
mouse model of ITP = assay: mouse model of ITP; type: in vivo
platelet aggregation = conditions: healthy volunteers or patients with ITP; cited from earlier work
[6] = test system: adult patients with persistent or chronic ITP; assay: LUNA 3 phase 3 double-blind placebo-controlled study; conditions: for Number of weeks with platelet counts 50 × 10^9/L, LSmean (SE) / Number of weeks with platelet counts between ≥30 × 10^9/L and <50 × 10^9/L and at least doubled from baseline, LSmean (SE): absence of rescue medication; for Time to platelet response, Median (95% CI): N = 133
[7] = humans, oral administration; cited from earlier work
Fc receptor signaling = assay: antibody (IgG, IgE) mediated activation of immune cells in vitro; type: cell-based
BTK enzyme = BTK enzyme (Homo sapiens, UniProt Q06187); conditions: healthy volunteers, doses providing 100% BTK occupancy; cited from earlier work
adults with ITP = assay: response to prior ITP medication of adults enrolled in LUNA 3; type: in vivo, human; conditions: patients who received that medication
Excerpt: Eligible patients had primary ITP for a duration of >3 months for adults (age ≥18 years) and >6 months for adolescent (age 12-17 years) and pediatric patients (age […]; EU only), and two average platelet counts <30×10^9/[…] within 2 weeks before treatment (Kuter et al. 2023).
Overall, 202 adults with a median age of 47 years (range, 18-80) enrolled from 154 study sites as of Sep. 28, 2023 (see Table 3); enrollment is complete for adults and ongoing for pediatrics. Most adults were female (63%), white (62%) or Asian (32%), and not Hispanic/Latino (77%). Geographic regions enrolling patients included Asia/Pacific (35% of patients), West Europe (24% of patients), South America (17% of patients), East Europe (16% of patients), and North America (8% of patients). Patients had ITP for a median duration of 7.7 years, with 75% having a duration >3 years. […] The most common prior ITP therapies were CS (96%), TPO-RA (66%), and IVIg ([…]); patients' prior responses are shown in Table 3.

ITP patients = conditions: cited from earlier work
[8] = 400 mg BID, 24-week blinded period
[9] = 400 mg BID, 24-week blinded period, listed as Rilzabrutinib

Sequence of B cell lymphocyte kinase (BLK) (P51451 whole entry, species assumed): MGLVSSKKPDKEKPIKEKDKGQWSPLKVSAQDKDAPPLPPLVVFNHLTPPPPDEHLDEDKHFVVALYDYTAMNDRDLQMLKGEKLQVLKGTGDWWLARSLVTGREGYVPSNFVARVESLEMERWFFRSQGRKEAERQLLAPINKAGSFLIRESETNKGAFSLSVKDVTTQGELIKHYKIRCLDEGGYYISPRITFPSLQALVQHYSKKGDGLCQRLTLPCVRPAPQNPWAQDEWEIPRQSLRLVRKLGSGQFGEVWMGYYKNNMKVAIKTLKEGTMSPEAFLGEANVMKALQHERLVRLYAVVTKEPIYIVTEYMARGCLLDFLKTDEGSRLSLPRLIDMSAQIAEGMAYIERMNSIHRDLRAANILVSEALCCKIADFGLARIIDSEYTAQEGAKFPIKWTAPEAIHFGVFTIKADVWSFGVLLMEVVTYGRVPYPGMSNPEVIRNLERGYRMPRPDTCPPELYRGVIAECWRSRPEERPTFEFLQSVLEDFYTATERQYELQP
Sequence of BTK enzyme (Q06187 whole entry): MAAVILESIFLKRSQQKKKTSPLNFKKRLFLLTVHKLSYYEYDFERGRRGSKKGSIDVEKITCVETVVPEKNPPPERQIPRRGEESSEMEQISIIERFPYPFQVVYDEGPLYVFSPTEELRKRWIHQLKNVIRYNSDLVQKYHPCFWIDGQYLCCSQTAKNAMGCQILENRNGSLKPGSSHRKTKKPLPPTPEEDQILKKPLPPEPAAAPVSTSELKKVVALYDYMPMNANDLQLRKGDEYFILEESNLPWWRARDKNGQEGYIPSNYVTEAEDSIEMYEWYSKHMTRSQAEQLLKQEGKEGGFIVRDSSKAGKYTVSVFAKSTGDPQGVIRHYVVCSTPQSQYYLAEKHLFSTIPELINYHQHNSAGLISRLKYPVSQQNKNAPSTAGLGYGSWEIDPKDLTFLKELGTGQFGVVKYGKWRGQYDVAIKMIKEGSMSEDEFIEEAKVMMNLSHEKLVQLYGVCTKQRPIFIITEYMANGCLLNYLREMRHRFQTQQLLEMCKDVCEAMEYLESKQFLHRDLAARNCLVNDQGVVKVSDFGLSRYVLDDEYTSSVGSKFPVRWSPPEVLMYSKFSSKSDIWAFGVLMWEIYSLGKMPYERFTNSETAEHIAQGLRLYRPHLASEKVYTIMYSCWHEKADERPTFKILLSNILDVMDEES
Sequence of ERBB4 (Q15303 26-1308, species assumed): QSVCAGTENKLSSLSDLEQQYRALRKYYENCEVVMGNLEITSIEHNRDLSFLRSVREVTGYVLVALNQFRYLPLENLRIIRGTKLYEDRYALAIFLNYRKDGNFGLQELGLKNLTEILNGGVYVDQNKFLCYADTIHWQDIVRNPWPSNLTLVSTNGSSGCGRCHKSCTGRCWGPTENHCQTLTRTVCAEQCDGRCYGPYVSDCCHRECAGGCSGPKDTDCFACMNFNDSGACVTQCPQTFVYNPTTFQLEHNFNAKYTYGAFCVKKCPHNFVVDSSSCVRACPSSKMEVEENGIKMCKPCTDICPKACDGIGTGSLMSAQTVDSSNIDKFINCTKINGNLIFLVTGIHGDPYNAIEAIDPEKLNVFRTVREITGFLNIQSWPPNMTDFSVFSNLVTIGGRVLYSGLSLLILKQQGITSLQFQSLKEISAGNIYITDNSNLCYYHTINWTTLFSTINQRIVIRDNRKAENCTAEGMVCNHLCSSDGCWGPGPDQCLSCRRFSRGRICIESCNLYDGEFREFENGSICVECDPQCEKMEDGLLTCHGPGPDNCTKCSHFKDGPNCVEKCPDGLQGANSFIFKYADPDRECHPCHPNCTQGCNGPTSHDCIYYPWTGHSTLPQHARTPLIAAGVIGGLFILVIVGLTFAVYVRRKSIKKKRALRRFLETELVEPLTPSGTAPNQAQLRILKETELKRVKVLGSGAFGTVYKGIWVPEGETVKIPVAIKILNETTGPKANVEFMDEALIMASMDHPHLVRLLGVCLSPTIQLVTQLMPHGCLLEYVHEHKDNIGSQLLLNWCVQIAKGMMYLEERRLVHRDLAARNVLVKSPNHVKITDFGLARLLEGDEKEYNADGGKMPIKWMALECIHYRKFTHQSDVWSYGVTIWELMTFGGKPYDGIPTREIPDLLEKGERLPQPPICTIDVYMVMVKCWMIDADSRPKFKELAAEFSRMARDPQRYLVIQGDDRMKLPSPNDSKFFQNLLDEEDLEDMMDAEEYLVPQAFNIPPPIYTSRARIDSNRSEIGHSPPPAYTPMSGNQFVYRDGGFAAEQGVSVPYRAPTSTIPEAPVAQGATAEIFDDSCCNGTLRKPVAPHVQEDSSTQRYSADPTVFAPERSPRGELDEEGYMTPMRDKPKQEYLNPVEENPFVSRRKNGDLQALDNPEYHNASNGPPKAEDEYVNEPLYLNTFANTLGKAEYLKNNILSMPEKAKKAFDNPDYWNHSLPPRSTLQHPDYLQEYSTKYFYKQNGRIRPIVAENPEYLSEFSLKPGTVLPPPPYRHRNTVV

## CC(C)(C=C(C#N)C(=O)N1CCC[C@@H](n2nc(-c3ccc(Oc4ccccc4)cc3F)c3c(N)ncnc32)C1)N1CCN(C2COC2)CC1 (mixture of isomers) [rilzabrutinib, (R)-2-[3-[4-amino-3-(2-fluoro-4-phenoxy-phenyl)pyrazolo[3,4-d]pyrimidin-1-yl]piperidine-1-carbonyl]-4-methyl-4-[4-(oxetan-3-yl)piperazin-1-yl]pent-2-enenitrile]
[1]
  IC50: 6.3 nM
ERBB4
  IC50: 11 nM
[2]
  IC50: 1.2 nM
[3]; Part A
  tolerability: generally well tolerated
[3]; Part B
  bleeding (IBLS score): no evidence of increased bleeding
[3]; Part B, 400 mg BID, throughout main treatment period and LTE
  median platelet counts maintained: ≥ 5e+10 µL⁻¹
[3]; Part B, multiple individual and overall HRQOL health domains
  HRQOL: Clinically meaningful improvements
[3]; non-responding patients
  median PVI: 3
[3]; responding patients
  median PVI: 2
[4]
  IC50: 1 nM
251 kinases
  number of kinases with >90% inhibition: 6
Human B cell activation
  human B cell activation: profoundly inhibits
[5]
  IC50: 0.8 nM
Other TEC family members
  binding to other TEC family members over time: decayed rapidly over time
Mouse model of ITP
  platelet-loss (consumption): significant dose dependent reduction
Platelet aggregation
  effect on platelet aggregation: does not alter platelet aggregation
[6]; 400 mg BID
  day by which 25% of participants achieved a platelet response: 10 days
  median time to rescue therapy: never reached the median
  Time to platelet response, Median (95% CI): 36 days
[6]; [8]
  Number of weeks with platelet counts 50 × 10^9/L, LSmean Difference (95% CI) vs placebo: 6.46 (4.923, 7.990) weeks
  Number of weeks with platelet counts between ≥30 × 10^9/L and <50 × 10^9/L and at least doubled from baseline, LSmean Difference (95% CI) vs placebo: 6.31 (4.787, 7.831) weeks
  Number of weeks with platelet counts 50 × 10^9/L, LSmean (SE): 7 weeks
  Number of weeks with platelet counts between ≥30 × 10^9/L and <50 × 10^9/L and at least doubled from baseline, LSmean (SE): 7 weeks
[6]; [9]
  Number of weeks with platelet counts 50 × 10^9/L, LSmean (SE): 7.18 (0.747) weeks
  Number of weeks with platelet counts between ≥30 × 10^9/L and <50 × 10^9/L and at least doubled from baseline, LSmean (SE): 6.95 (0.749) weeks
[6]; 400 mg BID, 24-week double-blind period
  Durable response, Difference (95% CI) vs placebo: 23.1 (15.95, 30.31) %
[6]; 400 mg BID, listed as Rilzabrutinib
  Time to platelet response, Median (95% CI): 36 (22, 44) days
[6]; 400 mg BID, adult patients with ITP
  tolerability: generally well tolerated
[6]; 400 mg BID, vs placebo
  reduction in the need for rescue therapy: 52%
[6]; At Week 13
  ITP-PAQ physical fatigue score, Change from baseline, LSmean Difference (95% CI) vs placebo: 8.08 (1.818, 14.337)
[6]; At Week 13, 400 mg BID
  ITP-PAQ physical fatigue score, Change from baseline, LSmean (SE): 7.95 (2.132)
[6]; At Week 25
  Bleeding as assessed by IBLS, Change from baseline, LSmean Difference (95% CI) vs placebo: −0.087 (−0.1358, −0.0373)
  ITP-PAQ physical fatigue score, Change from baseline, LSmean Difference (95% CI) vs placebo: 11.95 (5.416, 18.493)
[6]; At Week 25, 400 mg BID
  Bleeding as assessed by IBLS, Change from baseline, LSmean (SE): −0.040 (0.0169)
  ITP-PAQ physical fatigue score, Change from baseline, LSmean (SE): 4.69 (2.263)
[6]; At Week 25, 400 mg BID, listed as Rilzabrutinib
  Bleeding as assessed by IBLS, Change from baseline, LSmean (SE): −0.040 (0.0169) ^
[6]; rilzabrutinib arm
  TEAE diarrhea, participants: 32.3%
  TEAE headache, participants: 18%
  TEAE nausea, participants: 20.3%
[7]
  absorption: rapidly absorbed
  half-life: 3 to 4 h
Fc receptor signaling
  antibody (IgG, IgE) mediated activation of immune cells via Fc receptor signaling: blocks

## C=CC(=O)Nc1cccc(Nc2nc(Nc3ccc(OCCOC)cc3)ncc2F)c1 [CC-292]
BTK enzyme
  tolerability: well tolerated

## COc1cc(Nc2ncc(F)c(Nc3ccc4c(n3)N(COP(=O)(O)O)C(=O)C(C)(C)O4)n2)cc(OC)c1OC [fostamatinib]
Adults with ITP
  Response to prior ITP medication (resulted in platelet count ≥50 × 10^9/L), %: (30) %
  Response to prior ITP medication (resulted in platelet count ≥50 × 10^9/L), n/n: 7/23
ITP patients; heavily pretreated ITP patients
  durable response rate: ~18%

## Rituximab: Anti-CD20 monoclonal antibody, second line ITP therapy
Adults with ITP
  Response to prior ITP medication (resulted in platelet count ≥50 × 10^9/L), %: (32) %
  Response to prior ITP medication (resulted in platelet count ≥50 × 10^9/L), n/n: 22/68
ITP patients; ITP, second line therapy
  durable on-treatment response rates: 60-80%
